Laboratory results published in ChEMBL document CHEMBL6134788, “Development of naphthalimide hydrazide derivatives as potent antibacterial agents against carbapenem-resistant A. baumannii” (RSC Med Chem, 2024).
Converted amounts (≈) assume the structure as drawn.

Key:
Staphylococcus aureus = test: Antibacterial activity against Staphylococcus aureus; format: functional
Acinetobacter baumannii [1] = test: Antibacterial activity against multi-drug resistant Acinetobacter baumannii clinical isolate 7 assessed as inhibition of bacterial growth incubated for 16 to 18 hrs by CLSI protocol based method; format: functional; conditions: time 16-18 hrs, read-out: MIC100
Acinetobacter baumannii [2] = test: Antibacterial activity against multi-drug resistant Acinetobacter baumannii clinical isolate 1 assessed as inhibition of bacterial growth incubated for 16 to 18 hrs by CLSI protocol based method; format: functional; conditions: time 16-18 hrs, read-out: MIC100
Acinetobacter baumannii [3] = test: Antibacterial activity against multi-drug resistant Acinetobacter baumannii clinical isolate 2 assessed as inhibition of bacterial growth incubated for 16 to 18 hrs by CLSI protocol based method; format: functional; conditions: time 16-18 hrs, read-out: MIC100
Acinetobacter baumannii [4] = test: Antibacterial activity against multi-drug resistant Acinetobacter baumannii Naval-17 assessed as inhibition of bacterial growth incubated for 16 to 18 hrs by CLSI protocol based method; format: functional; conditions: time 16-18 hrs, read-out: MIC100
Acinetobacter baumannii [5] = test: Antibacterial activity against multi-drug resistant Acinetobacter baumannii WL-136 assessed as inhibition of bacterial growth incubated for 16 to 18 hrs by CLSI protocol based method; format: functional; conditions: time 16-18 hrs, read-out: MIC100
Acinetobacter baumannii [6] = test: Antibacterial activity against multi-drug resistant Acinetobacter baumannii Naval-18 assessed as inhibition of bacterial growth incubated for 16 to 18 hrs by CLSI protocol based method; format: functional; conditions: time 16-18 hrs, read-out: MIC100
Acinetobacter baumannii [7] = test: Antibacterial activity against multi-drug resistant Acinetobacter baumannii WL-487 assessed as inhibition of bacterial growth incubated for 16 to 18 hrs by CLSI protocol based method; format: functional; conditions: time 16-18 hrs, read-out: MIC100
Acinetobacter baumannii [8] = test: Antibacterial activity against multi-drug resistant Acinetobacter baumannii clinical isolate 5 assessed as inhibition of bacterial growth incubated for 16 to 18 hrs by CLSI protocol based method; format: functional; conditions: time 16-18 hrs, read-out: MIC100
Acinetobacter baumannii [9] = test: Antibacterial activity against Acinetobacter baumannii ATCC 17978 assessed as inhibition of bacterial growth incubated for 16 to 18 hrs by CLSI protocol based method; format: functional; conditions: time 16-18 hrs, read-out: MIC100
Acinetobacter baumannii [10] = test: Antibacterial activity against multi-drug resistant Acinetobacter baumannii clinical isolate 11 assessed as inhibition of bacterial growth incubated for 16 to 18 hrs by CLSI protocol based method; format: functional; conditions: time 16-18 hrs, read-out: MIC100
Acinetobacter baumannii [11] = test: Antibacterial activity against multi-drug resistant Acinetobacter baumannii clinical isolate 10 assessed as inhibition of bacterial growth incubated for 16 to 18 hrs by CLSI protocol based method; format: functional; conditions: time 16-18 hrs, read-out: MIC100
Acinetobacter baumannii [12] = test: Antibacterial activity against multi-drug resistant Acinetobacter baumannii NR-17777 assessed as inhibition of bacterial growth incubated for 16 to 18 hrs by CLSI protocol based method; format: functional; conditions: time 16-18 hrs, read-out: MIC100
Acinetobacter baumannii [13] = test: Antibacterial activity against multi-drug resistant Acinetobacter baumannii H72721 assessed as inhibition of bacterial growth incubated for 16 to 18 hrs by CLSI protocol based method; format: functional; conditions: time 16-18 hrs, read-out: MIC100
Acinetobacter baumannii [14] = test: Antibacterial activity against multi-drug resistant Acinetobacter baumannii Naval-81 assessed as inhibition of bacterial growth incubated for 16 to 18 hrs by CLSI protocol based method; format: functional; conditions: time 16-18 hrs, read-out: MIC100
Acinetobacter baumannii [15] = test: Antibacterial activity against carbapenem-resistant Acinetobacter baumannii BAA 1605 assessed as inhibition of bacterial growth incubated for 16 to 18 hrs by CLSI protocol based method; format: functional; conditions: time 16-18 hrs
Acinetobacter baumannii [16] = test: Antibacterial activity against multi-drug resistant Acinetobacter baumannii clinical isolate 8 assessed as inhibition of bacterial growth incubated for 16 to 18 hrs by CLSI protocol based method; format: functional; conditions: time 16-18 hrs, read-out: MIC100
Acinetobacter baumannii [17] = test: Antibacterial activity against multi-drug resistant Acinetobacter baumannii clinical isolate 6 assessed as inhibition of bacterial growth incubated for 16 to 18 hrs by CLSI protocol based method; format: functional; conditions: time 16-18 hrs, read-out: MIC100
Acinetobacter baumannii [18] = test: Antibacterial activity against multi-drug resistant Acinetobacter baumannii clinical isolate 3 assessed as inhibition of bacterial growth incubated for 16 to 18 hrs by CLSI protocol based method; format: functional; conditions: time 16-18 hrs, read-out: MIC100
Acinetobacter baumannii [19] = test: Antibacterial activity against multi-drug resistant Acinetobacter baumannii clinical isolate 4 assessed as inhibition of bacterial growth incubated for 16 to 18 hrs by CLSI protocol based method; format: functional; conditions: time 16-18 hrs, read-out: MIC100
Acinetobacter baumannii [20] = test: Antibacterial activity against multi-drug resistant Acinetobacter baumannii 5-109 assessed as inhibition of bacterial growth incubated for 16 to 18 hrs by CLSI protocol based method; format: functional; conditions: time 16-18 hrs, read-out: MIC100
Acinetobacter baumannii [21] = test: Antibacterial activity against multi-drug resistant Acinetobacter baumannii clinical isolate 12 assessed as inhibition of bacterial growth incubated for 16 to 18 hrs by CLSI protocol based method; format: functional; conditions: time 16-18 hrs, read-out: MIC100
Acinetobacter baumannii [22] = test: Antibacterial activity against multi-drug resistant Acinetobacter baumannii clinical isolate 9 assessed as inhibition of bacterial growth incubated for 16 to 18 hrs by CLSI protocol based method; format: functional; conditions: time 16-18 hrs, read-out: MIC100
Acinetobacter baumannii [23] = test: Antibacterial activity against multi-drug resistant Acinetobacter baumannii BC-5 assessed as inhibition of bacterial growth incubated for 16 to 18 hrs by CLSI protocol based method; format: functional; conditions: time 16-18 hrs, read-out: MIC100
Acinetobacter baumannii [24] = test: Antibacterial activity against multi-drug resistant Acinetobacter baumannii 5-143 assessed as inhibition of bacterial growth incubated for 16 to 18 hrs by CLSI protocol based method; format: functional; conditions: time 16-18 hrs, read-out: MIC100
Acinetobacter baumannii [25] = test: Antibacterial activity against multi-drug resistant Acinetobacter baumannii 5-189 assessed as inhibition of bacterial growth incubated for 16 to 18 hrs by CLSI protocol based method; format: functional; conditions: time 16-18 hrs, read-out: MIC100
Acinetobacter baumannii [26] = test: Antibacterial activity against multi-drug resistant Acinetobacter baumannii 5-032 assessed as inhibition of bacterial growth incubated for 16 to 18 hrs by CLSI protocol based method; format: functional; conditions: time 16-18 hrs, read-out: MIC100
[27] = Selectivity index, ratio of CC50 for cytotoxicity against African green monkey VERO cells to MIC for antibacterial activity against carbapenem-resistant Acinetobacter baumannii BAA 1605 assessed as inhibition of bacterial growth; format: toxicity, cell-based; conditions: read-out: Selectivity Index
[28] = Cytotoxicity against African green monkey Vero cells assessed as reduction in cell viability incubated for 72 hrs by MTT assay; format: toxicity, cell-based; conditions: chlorocebus sabaeus

Compound: Cc1ccc2cc(C(=O)N3CCN(CCN4C(=O)c5cccc6cccc(c56)C4=O)CC3)c(=O)oc2c1
- MIC (Staphylococcus aureus): 0.5 µg/mL (≈ 1.01 µM)

Compound: CN(C)c1ccc(O)c2c1C[C@H]1C[C@H]3[C@H](N(C)C)C(O)=C(C(N)=O)C(=O)[C@@]3(O)C(O)=C1C2=O [MINOCYCLINE]
- MIC (Acinetobacter baumannii [1]): 8 µg/mL (≈ 17.5 µM)
- MIC (Acinetobacter baumannii [2]): 2 µg/mL (≈ 4.37 µM)
- MIC (Acinetobacter baumannii [3]): 2 µg/mL (≈ 4.37 µM)
- MIC (Acinetobacter baumannii [4]): 16 µg/mL (≈ 35 µM)
- MIC (Acinetobacter baumannii [5]): 0.25 µg/mL (≈ 0.546 µM)
- MIC (Acinetobacter baumannii [6]): 1 µg/mL (≈ 2.19 µM)
- MIC (Acinetobacter baumannii [7]): 0.25 µg/mL (≈ 0.546 µM)
- MIC (Acinetobacter baumannii [8]): 8 µg/mL (≈ 17.5 µM)
- MIC (Acinetobacter baumannii [9]): 0.125 µg/mL (≈ 0.273 µM)
- MIC (Acinetobacter baumannii [10]): 2 µg/mL (≈ 4.37 µM)
- MIC (Acinetobacter baumannii [11]): 2 µg/mL (≈ 4.37 µM)
- MIC (Acinetobacter baumannii [12]): 2 µg/mL (≈ 4.37 µM)
- MIC (Acinetobacter baumannii [13]): 2 µg/mL (≈ 4.37 µM)
- MIC (Acinetobacter baumannii [14]): 1 µg/mL (≈ 2.19 µM)
- MIC (Acinetobacter baumannii [15]; read-out: MIC100): 2 µg/mL (≈ 4.37 µM)
- MIC (Acinetobacter baumannii [16]): 4 µg/mL (≈ 8.74 µM)
- MIC (Acinetobacter baumannii [17]): 4 µg/mL (≈ 8.74 µM)
- MIC (Acinetobacter baumannii [18]): 1 µg/mL (≈ 2.19 µM)
- MIC (Acinetobacter baumannii [19]): 2 µg/mL (≈ 4.37 µM)
- MIC (Acinetobacter baumannii [20]): 2 µg/mL (≈ 4.37 µM)
- MIC (Acinetobacter baumannii [21]): 4 µg/mL (≈ 8.74 µM)
- MIC (Acinetobacter baumannii [22]): 4 µg/mL (≈ 8.74 µM)
- MIC (Acinetobacter baumannii [23]): 2 µg/mL (≈ 4.37 µM)
- MIC (Acinetobacter baumannii [24]): 0.25 µg/mL (≈ 0.546 µM)
- MIC (Acinetobacter baumannii [25]): 8 µg/mL (≈ 17.5 µM)
- MIC (Acinetobacter baumannii [26]): 0.25 µg/mL (≈ 0.546 µM)

Compound: COc1cccc2c1C(=O)c1c(O)c3c(c(O)c1C2=O)C[C@@](O)(C(=O)CO)C[C@@H]3O[C@H]1C[C@H](N)[C@H](O)[C@H](C)O1 [DOXORUBICIN]
- selectivity ratio [27]: < 1
- CC50 at 72 h [28]: < 10 µg/mL
- MIC (Acinetobacter baumannii [15]; read-out: MIC): > 64 µg/mL
